Experiments:
CK1δ = CK1δ (Homo sapiens, UniProt P48730); assay: CK1δ kinase assay (Caliper LABCHIP electrophoretic separation of fluoresceinated peptide substrate and product); type: biochemical; conditions: 200 pM CK1δ, 50 μM ATP, 1.5 μM peptide substrate, 22 hours at room temperature
Protocol: (§1) CK1ϵ and CK1δ Kinase Assays
(§2) The kinase assay was performed in V-bottom 384-well plates.
(§3) The reaction was incubated at room temperature for 22 hours and terminated by adding 45 μl of 35 mM EDTA to each sample. The reaction mixture was analyzed on the Caliper LABCHIP®3000 (Caliper, Hopkinton, Mass.) by electrophoretic separation of the unphosphorylated substrate and phosphorylated product. […] Compounds were dissolved at 10 mM in dimethylsulfoxide (DMSO) and evaluated at eleven concentrations. IC50 values were derived by non-linear regression analysis.

CK1ϵ = CK1ϵ (Homo sapiens, UniProt P49674); assay: CK1ϵ kinase assay (Caliper LABCHIP electrophoretic separation of fluoresceinated peptide substrate and product); type: biochemical; conditions: 200 pM CK1ϵ, 50 μM ATP, 1.5 μM peptide substrate, 22 hours at room temperature; read-out: CK1ε (IC50)
Chain of CK1ϵ (P49674 whole entry): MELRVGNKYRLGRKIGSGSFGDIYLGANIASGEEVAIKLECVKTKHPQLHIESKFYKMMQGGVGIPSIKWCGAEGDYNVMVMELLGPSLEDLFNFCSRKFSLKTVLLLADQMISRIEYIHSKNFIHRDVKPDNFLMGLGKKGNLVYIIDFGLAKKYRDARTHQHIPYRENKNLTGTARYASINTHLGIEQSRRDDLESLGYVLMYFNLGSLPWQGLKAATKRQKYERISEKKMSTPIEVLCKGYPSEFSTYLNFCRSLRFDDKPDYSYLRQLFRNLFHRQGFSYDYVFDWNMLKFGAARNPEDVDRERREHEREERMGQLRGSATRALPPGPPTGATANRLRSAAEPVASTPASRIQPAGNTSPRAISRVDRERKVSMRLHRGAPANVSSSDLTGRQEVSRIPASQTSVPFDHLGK
Protocol: as §1, §2, §3

Chain of CK1δ (P48730 whole entry): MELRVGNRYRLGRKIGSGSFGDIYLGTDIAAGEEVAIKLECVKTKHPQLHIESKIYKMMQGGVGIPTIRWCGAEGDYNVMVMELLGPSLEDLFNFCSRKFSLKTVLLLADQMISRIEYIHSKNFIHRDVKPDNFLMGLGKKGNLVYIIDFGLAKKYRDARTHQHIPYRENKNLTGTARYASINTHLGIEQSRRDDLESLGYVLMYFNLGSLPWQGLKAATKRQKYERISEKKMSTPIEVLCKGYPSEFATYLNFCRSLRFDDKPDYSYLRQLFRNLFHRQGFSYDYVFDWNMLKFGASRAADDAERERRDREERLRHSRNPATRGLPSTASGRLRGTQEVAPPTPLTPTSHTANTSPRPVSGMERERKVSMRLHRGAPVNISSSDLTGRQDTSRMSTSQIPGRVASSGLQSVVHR

O=C(Nc1cn2nc(-c3c(-c4ccc(F)cc4)nn4c3CN(C3CC3)CC4)ccc2n1)c1ccnc(F)c1 [Example 31, N-(6-(5-Cyclopropyl-2-(4-fluorophenyl)-4,5,6,7-tetrahydropyrazolo[1,5-a]pyrazin-3-yl)imidazo[1,2-b]pyridazin-2-yl)-2-fluoroisonicotinamide]
IC50 (CK1δ): 0.1 nM | IC50 (CK1ϵ): 1.1 nM

O=C(Nc1cn2nc(-c3c(-c4ccc(F)cc4)nn4c3CN(CC(F)F)CC4)ccc2n1)c1ccnc(F)c1 [Example 32, N-(6-(5-(2,2-Difluoroethyl)-2-(4-fluorophenyl)-4,5,6,7-tetrahydropyrazolo[1,5-a]pyrazin-3-yl)imidazo[1,2-b]pyridazin-2-yl)-2-fluoroisonicotinamide]
IC50 (CK1δ): 0.3 nM | IC50 (CK1ϵ): 1.5 nM

COC(=O)N1CCn2nc(-c3ccc(F)cc3)c(-c3ccc4nc(NC(=O)c5ccnc(F)c5)cn4n3)c2C1 [Example 33, Methyl 3-(2-(2-fluoroisonicotinamido)imidazo[1,2-b]pyridazin-6-yl)-2-(4-fluorophenyl)-6,7-dihydropyrazolo[1,5-a]pyrazine-5(4H)-carboxylate]
IC50 (CK1δ): 0.3 nM | IC50 (CK1ϵ): 1.9 nM

CC(C)OC(=O)N1CCn2nc(-c3ccc(F)cc3)c(-c3ccc4nc(NC(=O)c5ccnc(F)c5)cn4n3)c2C1 [Example 34, Isopropyl 3-(2-(2-fluoroisonicotinamido)imidazo[1,2-b]pyridazin-6-yl)-2-(4-fluorophenyl)-6,7-dihydropyrazolo[1,5-a] pyrazine-5(4H)-carboxylate]
IC50 (CK1δ): 1 nM | IC50 (CK1ϵ): 6.5 nM

CS(=O)(=O)N1CCn2nc(-c3ccc(F)cc3)c(-c3ccc4nc(NC(=O)c5ccnc(F)c5)cn4n3)c2C1 [Example 35, 2-Fluoro-N-(6-(2-(4-fluorophenyl)-5-(methylsulfonyl)-4,5,6,7-tetrahydropyrazolo[1,5-a]pyrazin-3-yl)imidazo[1,2-b]pyridazin-2-yl)isonicotinamide]
IC50 (CK1δ): 0.2 nM | IC50 (CK1ϵ): 0.8 nM

O=C(Nc1cn2nc(-c3c(-c4ccc(F)cc4)nn4c3CN(S(=O)(=O)C3CC3)CC4)ccc2n1)c1ccnc(F)c1 [Example 36, N-(6-(5-(Cyclopropylsulfonyl)-2-(4-fluorophenyl)-4,5,6,7-tetrahydropyrazolo[1,5-a]pyrazin-3-yl)imidazo[1,2-b]pyridazin-2-yl)-2-fluoroisonicotinamide]
IC50 (CK1δ): 0.1 nM | IC50 (CK1ϵ): 1.2 nM

O=C(Nc1cn2nc(-c3c(-c4ccc(F)cc4)nn4c3CN(S(=O)(=O)c3ccc(F)cc3)CC4)ccc2n1)c1ccnc(F)c1 [Example 37, 2-Fluoro-N-(6-(2-(4-fluorophenyl)-5-((4-fluorophenyl)sulfonyl)-4,5,6,7-tetrahydropyrazolo [1,5-a]pyrazin-3-yl)imidazo [1,2-b]pyridazin-2-yl) isonicotinamide]
IC50 (CK1δ): 1.1 nM | IC50 (CK1ϵ): 14 nM

O=C(Nc1cn2nc(-c3c(-c4ccc(F)cc4)nn4c3CN(S(=O)(=O)c3cccc(F)c3)CC4)ccc2n1)c1ccnc(F)c1 [Example 38, 2-Fluoro-N-(6-(2-(4-fluorophenyl)-5-((3-fluorophenyl)sulfonyl)-4,5,6,7-tetrahydropyrazolo [1,5-a]pyrazin-3-yl)imidazo [1,2-b]pyridazin-2-yl) isonicotinamide]
IC50 (CK1δ): 0.3 nM | IC50 (CK1ϵ): 4.9 nM

Cn1cnc(S(=O)(=O)N2CCn3nc(-c4ccc(F)cc4)c(-c4ccc5nc(NC(=O)c6ccnc(F)c6)cn5n4)c3C2)c1 [Example 39, 2-Fluoro-N-(6-(2-(4-fluorophenyl)-5-((1-methyl-1H-imidazol-4-yl)sulfonyl)-4,5,6,7-tetrahydropyrazolo [1,5-a]pyrazin-3-yl)imidazo [1,2-b]pyridazin-2-yl) isonicotinamide]
IC50 (CK1δ): 0.4 nM | IC50 (CK1ϵ): 4.6 nM

O=C(Nc1cn2nc(-c3c(-c4ccc(F)cc4)nn4c3CN(S(=O)(=O)Cc3ccccc3)CC4)ccc2n1)c1ccnc(F)c1 [Example 40, N-(6-(5-(Benzylsulfonyl)-2-(4-fluorophenyl)-4,5,6,7-tetrahydropyrazolo[1,5-a]pyrazin-3-yl)imidazo[1,2-b]pyridazin-2-yl)-2-fluoroisonicotinamide]
IC50 (CK1δ): 2.8 nM | IC50 (CK1ϵ): 10.3 nM

CC(C)(C)NC(=O)N1CCn2nc(-c3ccc(F)cc3)c(-c3ccc4nc(NC(=O)c5ccnc(F)c5)cn4n3)c2C1 [Example 41, N-(tert-Butyl)-3-(2-(2-fluoroisonicotinamido)imidazo[1,2-b]pyridazin-6-yl)-2-(4-fluorophenyl)-6,7-dihydropyrazolo[1,5-a]pyrazine-5 (4)-carboxamide]
IC50 (CK1δ): 2.8 nM | IC50 (CK1ϵ): 20.5 nM

CC(C)NC(=O)N1CCn2nc(-c3ccc(F)cc3)c(-c3ccc4nc(NC(=O)c5ccnc(F)c5)cn4n3)c2C1 [Example 42, 3-(2-(2-Fluoroisonicotinamido)imidazo[1,2-b]pyridazin-6-yl)-2-(4-fluorophenyl)-N-isopropyl-6,7-dihydropyrazolo[1,5-a] pyrazine-5(4H)-carboxamide]
IC50 (CK1δ): 0.8 nM | IC50 (CK1ϵ): 9.5 nM

O=C(Nc1cn2nc(-c3c(-c4ccc(F)cc4)nn4c3CN(C(=O)NC3CCCCC3)CC4)ccc2n1)c1ccnc(F)c1 [Example 43, N-Cyclohexyl-3-(2-(2-fluoroisonicotinamido)imidazo [1,2-b]pyridazin-6-yl)-2-(4-fluorophenyl)-6,7-dihydropyrazolo[1,5-a]pyrazine-5(4H)-carboxamide]
IC50 (CK1δ): 1.6 nM | IC50 (CK1ϵ): 24 nM

O=C(Nc1cn2nc(-c3c(-c4ccc(F)cc4)nn4c3CN(C(=O)NC3CCCC3)CC4)ccc2n1)c1ccnc(F)c1 [Example 44, N-Cyclopentyl-3-(2-(2-fluoroisonicotinamido)imidazo [1,2-b]pyridazin-6-yl)-2-(4-fluorophenyl)-6,7-dihydropyrazolo[1,5-a]pyrazine-5(4H)-carboxamide]
IC50 (CK1δ): 2 nM | IC50 (CK1ϵ): 13.9 nM

O=C(Nc1cn2nc(-c3c(-c4ccc(F)cc4)nn4c3CN(C(=O)NC35CC6CC(CC(C6)C3)C5)CC4)ccc2n1)c1ccnc(F)c1 [Example 45, N-(Adamantan-1-yl)-3-(2-(2-fluoroisonicotinamido)imidazo [1,2-b]pyridazin-6-yl)-2-(4-fluorophenyl)-6,7-dihydropyrazolo[1,5-a]pyrazine-5(4H)-carboxamide]
IC50 (CK1δ): 19.2 nM | IC50 (CK1ϵ): 154 nM

O=C(Nc1cn2nc(-c3c(-c4ccc(F)cc4)nn4c3CN(C(=O)NC3CC3)CC4)ccc2n1)c1ccnc(F)c1 [Example 46, N-Cyclopropyl-3-(2-(2-fluoroisonicotinamido)imidazo[1,2-b]pyridazin-6-yl)-2-(4-fluorophenyl)-6,7-dihydropyrazolo[1,5-a]pyrazine-5(4H)-carboxamide]
IC50 (CK1δ): 0.4 nM | IC50 (CK1ϵ): 2.5 nM

O=C(Nc1cn2nc(-c3c(-c4ccc(F)cc4)nn4c3CN(C(=O)Nc3ccc(C(F)(F)F)cc3)CC4)ccc2n1)c1ccnc(F)c1 [Example 47, 3-(2-(2-Fluoroisonicotinamido)imidazo[1,2-b]pyridazin-6-yl)-2-(4-fluorophenyl)-N-(4-(trifluoromethyl)phenyl)-6,7-dihydropyrazolo[1,5-a]pyrazine-5(4H)-carboxamide]
IC50 (CK1δ): 12 nM | IC50 (CK1ϵ): 146 nM

O=C(Nc1cn2nc(-c3c(-c4ccc(F)cc4)nn4c3CN(C(=O)NCC(F)(F)F)CC4)ccc2n1)c1ccnc(F)c1 [Example 48, 3-(2-(2-Fluoroisonicotinamido)imidazo[1,2-b]pyridazin-6-yl)-2-(4-fluorophenyl)-N-(2,2,2-trifluoroethyl)-6,7-dihydropyrazolo[1,5-a]pyrazine-5(4H)-carboxamide]
IC50 (CK1δ): 0.4 nM | IC50 (CK1ϵ): 5.6 nM

O=C(Nc1cn2nc(-c3c(-c4ccc(F)cc4)nn4c3CN(C(=O)Nc3ccncc3)CC4)ccc2n1)c1ccnc(F)c1 [Example 49, 3-(2-(2-Fluoroisonicotinamido)imidazo[1,2-b]pyridazin-6-yl)-2-(4-fluorophenyl)-N-(pyridin-4-yl)-6,7-dihydropyrazolo[1,5-a]pyrazine-5(4H)-carboxamide]
IC50 (CK1δ): 0.7 nM | IC50 (CK1ϵ): 7.3 nM

O=C(Nc1cn2nc(-c3c(-c4ccc(F)cc4)nn4c3CN(C(=O)NCCC(F)(F)F)CC4)ccc2n1)c1ccnc(F)c1 [Example 50, 3-(2-(2-Fluoroisonicotinamido)imidazo[1,2-b]pyridazin-6-yl)-2-(4-fluorophenyl)-N-(3,3,3-trifluoropropyl)-6,7-dihydropyrazolo[1,5-a] pyrazine-5(4H)-carboxamide]
IC50 (CK1δ): 0.7 nM | IC50 (CK1ϵ): 9.3 nM

O=C(Nc1cn2nc(-c3c(-c4ccc(F)cc4)nn4c3CN(C(=O)NC3(C(F)(F)F)CC3)CC4)ccc2n1)c1ccnc(F)c1 [Example 51, 3-(2-(2-Fluoroisonicotinamido)imidazo[1,2-b]pyridazin-6-yl)-2-(4-fluorophenyl)-N-(1-(trifluoromethyl)cyclopropyl)-6,7-dihydropyrazolo[1,5-a] pyrazine-5(4H)-carboxamide]
IC50 (CK1δ): 1.5 nM | IC50 (CK1ϵ): 12.3 nM

CC1(NC(=O)N2CCn3nc(-c4ccc(F)cc4)c(-c4ccc5nc(NC(=O)c6ccnc(F)c6)cn5n4)c3C2)CC1 [Example 52, 3-(2-(2-Fluoroisonicotinamido)imidazo[1,2-b]pyridazin-6-yl)-2-(4-fluorophenyl)-N-(1-methylcyclopropyl)-6,7-dihydropyrazolo[1,5-a] pyrazine-5(4H)-carboxamide]
IC50 (CK1δ): 0.9 nM | IC50 (CK1ϵ): 7.7 nM

O=C(Nc1cn2nc(-c3c(-c4ccc(F)cc4)nn4c3COCC4)ccc2n1)c1ccnc(F)c1 [Example 53, 2-Fluoro-N-(6-(2-(4-fluorophenyl)-6,7-dihydro-4H-pyrazolo[5,1-c][1,4]oxazin-3-yl)imidazo[1,2-b]pyridazin-2-yl)isonicotinamide]
IC50 (CK1δ): 0.4 nM | IC50 (CK1ϵ): 4.1 nM
